Drawing on ChEMBL document CHEMBL1144132, “Dihydrochalcones and flavonolignans from Iryanthera lancifolia” (J Nat Prod, 1999), this text covers Activity for six molecules.

This assay can be described thus: Antioxidant activity in brain homogenate assessed as drug level require to inhibit 50% of spontaneous lipid peroxidation relative to control. The class given is functional, tissue-based.
Take `Cc1c(C)c2c(c(C)c1O)CC[C@@](C)(CCC[C@H](C)CCC[C@H](C)CCCC(C)C)O2`: the Activity was found to be 12.1 µg/mL.
The result for `COc1ccc(CCC(=O)c2c(OC)cc(O)c([C@@H](c3ccc(O)cc3)[C@@H](C)[C@H](C)Cc3ccc(O)cc3)c2O)cc1` (relative stereo) reads 5.5 µg/mL.
As for `COc1cc(O)c(C(=O)CCc2ccc(O)cc2)c(OC)c1`, the Activity amounted to 4.7 µg/mL.
For the molecule `COc1ccc(CCC(=O)c2c(OC)cc(O)c([C@H](c3ccc(O)cc3)[C@@H](C)[C@H](C)Cc3ccc(O)cc3)c2O)cc1` (relative stereo), the Activity was 4.8 µg/mL.
For the molecule `COc1ccc(CCC(=O)c2c(O)cc(O)cc2OC)cc1`, the Activity is 6.9 µg/mL.
Consider `O=c1c(O)c(-c2ccc(O)c(O)c2)oc2cc(O)cc(O)c12`, for which the Activity was 7.6 µg/mL.
